Holding throughout (assay): MIC against various organisms (broth dilution)
Common to all, as to format: cell-based

In one experiment the test system is E. faecalis ATCC 29212. To be noted: Enterococcus faecalis, ATCC29212. Here is the method: (§1) Using a standard broth dilution method in microtitre, compounds were tested for antibacterial activity. The compounds in the above examples gave minimum inhibitory concentrations (MICS) less than 1 microgram per millilitre against erythromycin-sensitive and erythromycin-resistant strains of Streptococcus pneumoniae and Streptococcus pyogenes.
(§2) In addition, the MIC (1 μg/mL) of test compounds against various organisms was determined including:
(§3) S. aureus Smith ATCC 13709, S. pnetnioniae SP030, S. pyogenes 3565, E. faecalis ATCC 29212, H. influenza ATCC 49247, M. catarrhalis ATCC 23246.

The subject of a further experiment is H. influenzae ATCC 49247. Particulars: Haemophilus influenzae, ATCC49247. As to the method: as §1, §2, §3
For experiment [1], the system named is M. catarrhalis ATCC 23246. To be noted: Moraxella catarrhalis, ATCC23246. Here is the method: as §1, §2, §3
The subject of experiment [2] is S. aureus Smith ATCC 13709. Particulars: Staphylococcus aureus, ATCC13709. Here is the method:
as §1, §2, §3

The test system of a further experiment is S. pneumoniae SP030. To be noted: Streptococcus pneumoniae. As to the method: as §1, §2, §3
The subject of another experiment is S. pyogenes 3565. To be noted: Streptococcus pyogenes. Here is the method:
as §1, §2, §3

As for `CC[C@H]1OC(=O)[C@H](C)[C@@H](O[C@H]2C[C@@](O)(OC)[C@@H](NC(=O)CCOCCNc3cc4c(=O)c(C(=O)O)cn(C5CC5)c4cc3Cl)[C@H](C)O2)[C@H](C)[C@@H](OC2O[C@H](C)C[C@H](N(C)C)[C@H]2O)[C@](C)(O)C[C@@H](C)CN(C)[C@H](C)[C@@H](O)[C@]1(C)O` (stereo partly drawn) [Example 1], the MIC against E. faecalis ATCC 29212 is under 1 µg/mL; in the experiment with H. influenzae ATCC 49247 it was under 2 µg/mL; in experiment [1], under 2 µg/mL; in experiment [2], under 1 µg/mL; against S. pneumoniae SP030, under 1 µg/mL; with S. pyogenes 3565 it was under 1 µg/mL.

With `CC[C@H]1OC(=O)[C@H](C)[C@@H](O[C@H]2C[C@@](O)(OC)[C@@H](NC(=O)CCOCCNc3cc4c(=O)c(C(=O)O)cn(C5CC5)c4cc3Cl)[C@H](C)O2)[C@H](C)[C@@H](O[C@@H]2O[C@H](C)C[C@H](N(C)C)[C@H]2O)[C@](C)(O)C[C@@H](C)CN(C)[C@H](C)[C@@H](O)[C@]1(C)O` [Example 2], the MIC with E. faecalis ATCC 29212 was under 1 µg/mL; against H. influenzae ATCC 49247, under 2 µg/mL; in experiment [1], under 2 µg/mL; in experiment [2], under 1 µg/mL; against S. pneumoniae SP030, under 1 µg/mL; with S. pyogenes 3565 it was under 1 µg/mL.

Regarding `CC[C@@H]1OC(=O)[C@H](C)[C@H](O[C@@H]2C[C@@](O)(OC)[C@@H](NC(=O)CCOCCOc3cc4c(=O)c(C(=O)O)cn(C5CC5)c4cc3Cl)[C@H](C)O2)[C@@H](C)[C@H](O[C@@H]2O[C@H](C)C[C@H](N(C)C)[C@@H]2O)[C@](C)(O)C[C@H](C)CN(C)[C@H](C)[C@@H](O)[C@]1(C)O` [Example 3, 4″-(S)-(3-[2-(3-Carboxy-7-chloro-1-cyclopropyl-4-oxo-1,4-dihydro-quinolin-6-yloxy)ethoxy]-propionylamino]-4″-deoxyazithromycin], the MIC is under 1 µg/mL against E. faecalis ATCC 29212; under 2 µg/mL in the experiment on H. influenzae ATCC 49247; under 2 µg/mL in experiment [1]; under 1 µg/mL in experiment [2]; under 1 µg/mL against S. pneumoniae SP030; under 1 µg/mL against S. pyogenes 3565.

(Values after patent publication US20080221158A1, “Novel 14 and 15 Membered Ring Compounds” (PLIVA - Istrazivacki Institut d.o.o, priority 2003, published 2008).)
